We go through five molecules from patent US7530461B2, “Esters of 5-aminolevulinic acid as photosensitizing agents in photochemotherapy” (PhotoCure ASA, priority 1995, dated 2009).

Structures are written as SMILES. Entries after “also recorded” stand apart in the source; their conditions may differ. Structures can show the parent of a compound that is named as a salt.

Data set [1] has as its system normal skin of nude mice. As to the kind of experiment: Fluorescence microscopy of mouse skin biopsies after topical application. Format: in vivo. The conditions noted are these: 1 h after topical application. How it is done: (§1) Treatment procedure. One of the creams was painted on the normal skin at right flank region of each mouse, and covered by a semi-permeable dressing (3M, St Paul, Minn., USA) for various time intervals (from 0.25 to 24 h) before fluorescence measurements in situ or being biopsied for microscopic fluorescence imaging. About 0.2 g cream was applied to an approximate 2.25 cm^2 area of the skin. In the case of i.p. injection the mice were given ALA or its methylester at a dose of 150 mg/kg. At least three mice were used for each condition.
Fluorescence microscopy. After the creams were topically applied to the skin of mice for various times (as indicated above), the skin was biopsied and the frozen tissue sections were cut with a cryostat to a thickness of 8 μm. The fluorescence microscopy was carried out using an Axioplan microscope (Zeiss, Germany) with a 100 W mercury lamp. The fluorescence images were recorded by a light-sensitive thermoelectrically cooled charge coupled device (CCD) camera (resolution: 385×578 pixels with a dynamic range of 16 bits per pixel)(Astromed CCD 3200, Cambridge, UK) and hard copies on a video printer (Sony multiscan video printer UP-930). The filter combination used for detection of porphyrin fluorescence consisted of 390-440 nm excitation filter, a 460 nm beam splitter and a >600 nm emission filter.
II. […] The fluorescence intensity of the porphyrins increased with the time after the application.

Data set [2] relates to normal skin of nu/nu nude mice. As to the kind of experiment: Protoporphyrin IX production in the skin of mice by CCD microscopy of biopsies. The conditions noted are these: 20% w/w cream; for time after topical application at which conversion into protoporphyrin IX (PpIX) is seen: normal skin of nu/nu nude mice; for time of maximum PpIX fluorescence after application: topical, 6 hours was the latest time point studied. The data set is classed as in vivo. The procedure: A commercial oil-in-water cream containing (20% w/w) one of the chemicals (free ALA, ALA methylester, ALA ethylester and ALA propylester) (see Example 1) was topically applied to the normal skin of nu/nu nude mice for 0.5, 1, 3 and 6 hours, then biopsied and evaluated by means of microscopic fluorescence photometry incorporating a light-sensitive thermol-electrically cooled charge coupled device (CCD) camera. […] The fluorescence intensity of PpIX in the skin increased with the time of the application and the maximum amounts of the fluorescence were seen about 6 hours (the latest time point studied) after the application in all cases.

The test system of data set [3] is BCC lesions and adjacent normal skin. As to the kind of experiment: Control one week after treatment (cream and light irradiation) of BCC patient. Format: in vivo, human.
Data set [4] relates to BCC lesions and surrounding normal skin. In words: PpIX production in human BCC and surrounding normal skin by CCD microscopy of biopsies. The data set is classed as in vivo. The procedure: […] After removal of dressings and cream in vivo fluorescence was measured at the surface of tumor tissue and adjacent normal skin by means of a spectrofluorometer. Punch biopsies of the same areas were removed and samples were immediately immersed in liquid nitrogen. The tissue sections were cut with a cryostat microtome to a thickness of 8 μm. The localization pattern of the porphyrin fluorescence in the tissue sections was directly observed by means of fluorescence microscopy. The same frozen sections were subsequently stained with routine H&E staining for histological identification.
The same sections were subsequently stained with routine H&E staining for histological identification. Fluorescence microscopy was carried out with an Axioplan microscope (Zeiss, Germany). Fluorescence images and quantitative measurements were performed by a light-sensitive thermol-electrically cooled charge coupled device (CCD) camera (Astromed CCD 3200, Cambridge, UK) and an image processing unit (Astromed/Visilog, PC 486DX2 66 MHz VL). The main purpose for such quantitative measurements is to determine the exact penetration of ALA-induced porphyrins from tissue surface to the bottom layers of cancer lesions. The results are shown in FIGS. 8 and 9 in which the fluorescence intensity is expressed as a function of depth of cancer lesion.
The tests were performed as described in Example 11.
Each of the following figures show both (A) fluorescence images of either the bottom layer of BCC lesions or of the surrounding normal skin. Curves indicating the fluorescence intensity as a function of depth of the BCC lesions or of the normal skin are also shown (B).

In data set [5] the test system is basal cell carcinomas (BCCs). As to the kind of experiment: Topical ALA-based PDT of patients with basal cell carcinomas. Format: in vivo, human.
For data set [6], the system named is normal skin of nude mice. In words: In situ measurement of PpIX fluorescence in the skin of mice by an optical-fiber-based system. The data set is classed as in vivo. To be noted: for PpIX fluorescence in normal mouse skin after cream containing the agent alone: without ALA methylester. How it is done:
Chemicals. 5-aminolevulinic acid (ALA) methyl-, ethyl- and propyl-esters (H2N—CH2COOCH2—CH2COO—R; R can be CH3, CH2—CH2—CH3) were prepared by Norsk Hydro Research Center (Porsgrunn, Norway) as described in Examples 1 to 3. Free ALA hydrochloride and desferrioxamine mesylate (DF) were purchased from Sigma Chemical Company (St. Louis, Mo., USA). Dimethyl sulphoxide (DMSO) was obtained from Janssen Chimica (Geel, Belgium). Commercial oil-water creams (Unguentum Merck, Darmstadt, Germany) containing 20% one of the ALA ester derivatives (w/w), 20% free ALA, 20% ALA methylester plus 5% DF, 20% ALA methylester plus 20% DMSO, or 20% ALA methylester plus 5% DF and 20% DMSO were freshly prepared prior to use. All creams were made by the Pharmacy at the Norwegian Radium Hospital. For intraperitoneal injection, ALA and its methylester were freshly dissolved in saline. All other chemicals used were of the highest purity commercially available.
Animals. Female Balb/c nu/nu athymic nude mice were obtained from the Animal Laboratory at the Norwegian Radium Hospital and kept under specific-pathogen-free conditions. At the start of the experiments the mice were 6-7 weeks old weighing 18-24 g. Three mice were housed per cage with autoclaved covers in a dark room during the experiments.
as §1
Fluorescence spectroscopic measurements in situ. A perkin Elmer LS-50 fluorescence spectrometer equipped with a red-sensitive photomultiplier (Hamamatsu R 928) was used. This instrument has a pulsed Xenon arc light source and phase sensitive detection, such that fluorescence can be readily measured. Part of the excitation beam (set at 408 nm for fluorescence measurements) was reflected into a 600 μm core multimodus optical quartz fiber (No. 3501 393, Dornier Medizintechnik, GmbH, Germering, Germany) by means of a mirror for application onto the subject through a hand held probe. Emission in the region of 550-750 nm was measured via emission fibres collecting information through the probe.
I. The effect of DF and/or DMSO on the build up of fluorescence in the normal skin of mice in situ was ascertained various times after topical administration of ALA-methylester. Methods were performed as described in Example 9.

In data set [7] the test system is normal skin of nude mice. The data set is described as above. To be noted: 14 hours after topical application; listed as free ALA. The data set is classed as in vivo.
[8] abbreviates: topical application for 24 hours.

As for `CCOC(=O)CCC(=O)CN.Cl` [ALA ethylester, ethyl 5-aminolevulinate hydrochloride], in data set [1], the “localization of porphyrin fluorescence in mouse skin” value (shortened to “localization”) is “fluorescence in the epidermis (Ep), epithelial hair follicles and sebaceous gland (arrows), but not in the dermis (De)”. Besides, in data set [2], the “time after topical application at which conversion into protoporphyrin IX (PpIX) is seen” value (from here on “time after topical application … (PpIX) is seen”) amounted to 0.5 h and the “time of maximum PpIX fluorescence after application” value (from here on “time of maximum PpIX fluorescence”) is recorded as “about 6 hours”.
As to `CCCOC(=O)CCC(=O)CN.Cl` [ALA propylester, n-propyl 5-aminolevulinate hydrochloride], the “localization” value in data set [1] was “fluorescence in the epidermis (Ep), epithelial hair follicles and sebaceous gland (arrows), but not in the dermis (De)”. Also, in data set [2], the “time after topical application … (PpIX) is seen” value came to 0.5 h and the “time of maximum PpIX fluorescence” value is given as “about 6 hours”.
Take `NCC(=O)CCC(=O)O` [ALA, 5-aminolevulinic acid]: the “localization” value in data set [1] is “fluorescence in the epidermis (Ep), epithelial hair follicles and sebaceous gland (arrows), but not in the dermis (De)”. In data set [3], the “erythema in adjacent normal skin exposed to cream and light irradiation” value is recorded as “marked erythema”; the “tumor response in treatment fields” value is reported as “central necrotic area corresponding to the tumor”. In addition, in data set [2], the “time after topical application … (PpIX) is seen” value is 0.5 h and the “time of maximum PpIX fluorescence” value is listed as “about 6 hours”. Besides, the “distribution of PpIX fluorescence from top to bottom of BCC lesions” value in data set [4] (20% w/w cream, 24 hours, patient) was “homogeneous distribution of PpIX fluorescence”. Further, in data set [4] (setting [8]), the “distribution of porphyrin fluorescence in the bottom layer of BCC and surrounding normal skin” value was “homogenous distribution”; the “fluorescence intensity ratio between BCC and normal skin” value was “about 1”; the “porphyrin fluorescence/production in BCC, ALA methyl ester versus free ALA alone” value is “less than that in the case of ALA methyl ester”. The “complete response rate of nodular BCCs” value in data set [5] is recorded as “low complete response rate”. For the same molecule, the “superficial BCCs showing complete regression” value in data set [5] (past five years) is given as “more than 90%”. Further, the “time after topical application at which PpIX fluorescence was built up” value in data set [6] (20% cream, normal skin of nude mice) is 1.5 h. Further, in data set [7], the “PpIX fluorescence in other areas of the skin and internal organs (ear, dermis, muscle, brain, liver)” value is given as “a strong fluorescence was also seen in the ear as well as in the other areas of the skin; also recorded: a strong fluorescence of free ALA-induced porphyrins was found in regions of the skin outside the area where the cream was topically applied”.
As for `CC(=O)N(O)CCCCCNC(=O)CCC(=O)N(O)CCCCCNC(=O)CCC(=O)N(O)CCCCCN` [DF, desferrioxamine mesylate], in data set [6] (topical, with 20% ALA methylester cream, normal mouse skin), the “effect on production of ALA methylester-induced PpIX” value is “significantly enhanced; also recorded: significant effect in enhancing the production”. Besides, the “PpIX fluorescence in normal mouse skin after cream containing the agent alone” value in data set [6] (topical) is “some fluorescence of PpIX”.
`C[S+](C)[O-]` [DMSO, Dimethyl sulphoxide]: in data set [6] (topical), the “PpIX fluorescence in normal mouse skin after cream containing the agent alone” value is given as “did not show any fluorescence”.
